Measurements reported in patent US10730878B2, “Fused quinoline compounds as PI3K/mTOR inhibitors” (ADVENCHEN PHARMACEUTICALS, LLC, priority 2015, dated 2020).

How the values were obtained:
[1] = target: T1, mTor (Homo sapiens, UniProt P42345); experiment: mTor kinase inhibition, % activity at 0.03 μM (kinases panel screening); assay type: biochemical; details: 0.03 μM compound
T1 construct: purchased Millipore/Merck KGA of Europe (panel screening service)
Excerpt: (§1) In vitro kinase inhibition activities included Pi3k and mTor activities can be tested with Millipore/Merck KGA of Europe in their kinases panel screening. Animal antitumor activity testing can be conducted by various cancer xenograft models for a compound of formula I. […]

[2] = tested on: pi3K; experiment: pi3K kinase inhibition, % activity at 0.03 μM (kinases panel screening); assay type: biochemical; details: 0.03 μM compound
Excerpt: as §1

[3] = tested on: tumor cell lines; experiment: inhibition on tumor cell lines (drawing 11); assay type: cell-based; design: tumor cell line inhibition, first column under head drawing 11 / tumor cell line inhibition, third column under head drawing 11: unit not given here; details: head is a drawing, cell line and unit not readable; for tumor cell line inhibition, first column under head drawing 11: first of three columns; for tumor cell line inhibition, second column under head drawing 11: second of three columns; for tumor cell line inhibition, third column under head drawing 11: third of three columns
Description: The following compounds or a pharmaceutically acceptable salt thereof, but not limited, can also be prepared similarly according to the methods described in Scheme I-Scheme II. They are also tested for the inhibitions on mTor or pi3k kinases, or tumor cell lines.

Compound | mTor % activity @0.03 μM [1] [%] | pi3K % activity @0.03 μM [2] [%] | tumor cell line inhibition, first column under head drawing 11 [3] | tumor cell line inhibition, second column under head drawing 11 [3] | tumor cell line inhibition, third column under head drawing 11 [3]
N-(5-{16-[4-(1-cyano-1-methylethyl)phenyl]-8,11,13,14,16-pentaazatetracyclo[8.6.0.0^2,^7.0^11,^1^5]-hexadeca-1(10), 2,4,6,8,12,14-heptaen-4-yl)}pyridin-2-yl)-2-(oxan-4-ylamino)acetamide | −1 | 68 | – | – | –
N-(5-{16-[4-(1-cyano-1-methylethyl)phenyl]-8,11,13,14,16-pentaazatetracyclo[8.6.0.0^2,^7.0^11,^1^5]-hexadeca-1(10), 2,4,6,8,12,14-heptaen-4-yl)}pyridin-2-yl)-2-(methylamino)acetamide | 0 | 39 | – | – | –
CC(C)(C)c1ccc(-n2c3c4cc(-c5cnc(N)cc5C(F)(F)F)ccc4ncc3n3cnnc23)cc1 [5-[16-(4-tert-butylphenyl)-8,11,13,14,16-pentaazatetracyclo[8.6.0.0^2,^7.0^11,^1^5]hexadeca-1(10),2,4,6,8,12,14-heptaen-4-yl]-4-(trifluoromethyl)pyridin-2-amine] | 83 | 30 | – | – | –
N-{5-[16-(4-tert-butylphenyl)-8,11,13,14,16-pentaazatetracyclo[8.6.0.0^2,^7.0^11,^1^5]hexadeca-1(10),2,4,6,8,12,14-heptaen-4-yl]pyridin-2-yl}-2-(pyrrolidin-1-yl)acetamide | 27 | 88 | – | – | –
Cc1nnc2n(-c3ccc(C(C)(C)C#N)cc3)c3c4cc(-c5ccncc5)ccc4ncc3n12 [4-pyridine; CH3; CH3, CH3; CN, 2-methyl-2-{4-[12-methyl-4-(pyridin-4-yl)-8,11,13,14,16-pentaazatetracyclo[8.6.0.0^2,^7.0^11,^1^5]-hexadeca-1(10), 2,4,6,8,12,14-heptaen-16-yl]phenyl}propanenitrile] | – | – | 0.08 | 0.37 | 0.23
N#CC1(c2ccc(-n3c4c5cc(-c6cnc7ccccc7c6)ccc5ncc4n4cnnc34)cc2)CCCC1 [1-{4-[4-(quinolin-3-yl)-8,11,13,14,16-pentaazatetracyclo-[8.6.0.0^2,^7.0^11,^1^5]hexadeca-1(10),2,4,6,8,12,14-heptaen-16-yl]phenyl}cyclopentane-1-carbonitrile] | – | – | 3.8 | 3.4 | 27
N-(5-{16-[4-(1-cyano-1-methylethyl)phenyl]-8,11,13,14,16-pentaazatetracyclo[8.6.0.0^2,^7.0^11,^1^5]-hexadeca-1(10), 2,4,6,8,12,14-heptaen-4-yl)}pyridin-2-yl)-2-(cyclohexylamino)acetamide | 3 | 79 | – | – | –
Cc1nnc2n(-c3ccc(C(C)(C)C#N)cc3)c3c4cc(-c5cccnc5)ccc4ncc3n12 [3-pyridine; CH3; CH3, CH3; CN, 2-methyl-2-{4-[12-methyl-4-(pyridin-3-yl)-8,11,13,14,16-pentaazatetracyclo-[8.6.0.0^2,^7.0^11,^1^5]-hexadeca-1(10),2,4,6,8,12,14-heptaen-16-yl]phenyl}propanenitrile] | 80 | – | 0.7 | 2.6 | 22
Cc1nnc2n(-c3ccc(C4(C#N)CC4)cc3)c3c4cc(-c5cccnc5)ccc4ncc3n12 [1-{4-[12-methyl-4-(pyridin-3-yl)-8,11,13,14,16-pentaazatetracyclo[8.6.0.0^2,^7.0^11,^1^5]-hexadeca-1(10),2,4,6,8,12,14-heptaen-16-yl]phenyl}cyclopropane-1-carbonitrile] | – | – | 1 | 0.3 | 0.9
Cc1nnc2n(-c3ccc(C(C)(C)C)cc3)c3c4cc(-c5cnc(N)cc5C(F)(F)F)ccc4ncc3n12 [5-[16-(4-tert-butylphenyl)-12-methyl-8,11,13,14,16-pentaazatetracyclo[8.6.0.0^2,^7.0^11,^1^5]hexa-deca-1(10), 2,4,6,8,12,14-heptaen-4-yl]-4-(trifluoromethyl)pyridin-2-amine] | 94 | 50 | – | – | –
N-(5-{16-[4-(1-cyano-1-methylethyl)phenyl]-8,11,13,14,16-pentaazatetracyclo[8.6.0.0^2,^7.0^11,^1^5]-hexadeca-1(10),2,4,6,8,12,14-heptaen-4-yl}pyridin-2-yl)-2-(cyclopentylamino)acetamide | −2 | 71 | – | – | –
CC(C)(C#N)c1ccc(-n2c3c4cc(-c5ccc(N)nc5)ccc4ncc3n3cnnc23)cc1 [5-pyridin-2-amine; H; CH3, CH3; CN, 2-{4-[4-(6-aminopyridin-3-yl)-8,11,13,14,16-pentaazatetracyclo[8.6.0.0^2,^7.0^11,^1^5]hexadeca-1(10),2,4,6,8,12,14-heptaen-16-yl]phenyl}-2-methylpropanenitrile] | 45 | −16 | – | – | –
C#CC(C)(C)c1ccc(-n2c3c4cc(-c5ccccc5F)ccc4ncc3n3c(C)nnc23)cc1 [2-Fluorophenyl; CH3; CH3, CH3; CN, 4-(2-fluorophenyl)-12-methyl-16-[4-(2-methylbut-3-yn-2-yl)phenyl]-8,11,13,14,16-pentaaza-tetracyclo[8.6.0.0^2,^7.0^11,^1^5]hexadeca-1(10), 2,4,6,8,12,14-heptaene] | – | – | 0.6 | 2.2 | 2
CC(C)(C)c1ccc(-n2c3c4cc(-c5ccc(N)nc5)ccc4ncc3n3cnnc23)cc1 [5-pyridin-2-amine; H; CH3, CH3; CH3, 5-[16-(4-tert-butylphenyl)-8,11,13,14,16-pentaazatetracyclo[8.6.0.0^2,^7.0^11,^1^5]hexadeca-1(10),2,4,6,8,12,14-heptaen-4-yl]pyridin-2-amine] | – | −19 | – | – | –
CCc1nnc2n(-c3ccc(C(C)(C)C#N)cc3)c3c4cc(-c5cccnc5)ccc4ncc3n12 [3-pyridine; CH2CH3; CH3, CH3; CN, 2-{4-[12-ethyl-4-(pyridin-3-yl)-8,11,13,14,16-pentaazatetracyclo[8.6.0.0^2,^7.0^11,^1^5]-hexadeca-1(10),2,4,6,8,12,14-heptaen-16-yl]phenyl}-2-methylpropanenitrile] | – | – | 2.7 | 2.2 | 2.5
CC(C)(C#N)c1ccc(-n2c3c4cc(-c5cnc6ccccc6c5)ccc4ncc3n3cnnc23)cc1 [3-quinoline; H; CH3, CH3; CN, 2-methyl-2-{4-[4-(quinolin-3-yl)-8,11,13,14,16-pentaazatetracyclo[8.6.0.0^2,^7.0^11,^1^5]-hexadeca-1(10),2,4,6,8,12,14-heptaen-16-yl]phenyl}propanenitrile] | – | – | 10.3 | 8.7 | >23
CCc1nnc2n(-c3ccc(C(C)(C)C)cc3)c3c4cc(-c5ccc(N)nc5)ccc4ncc3n12 [5-pyridin-2-amine; CH2CH3; CH3, CH3; CH3, 5-[16-(4-tert-butylphenyl)-12-ethyl-8,11,13,14,16-pentaazatetracyclo[8.6.0.0^2,^7.0^11,^1^5]hexadeca-1(10),2,4,6,8,12,14-heptaen-4-yl]pyridin-2-amine] | 20 | 40 | – | – | –
C#CC(C)(C)c1ccc(-n2c3c4cc(-c5ccc(F)cc5)ccc4ncc3n3c(C)nnc23)cc1 [4-Fluorophenyl; CH3; CH3, CH3; CN, 4-(4-fluorophenyl)-12-methyl-16-[4-(2-methylbut-3-yn-2-yl)phenyl]-8,11,13,14,16-pentaaza-tetracyclo-[8.6.0.0^2,^7.0^11,^1^5]hexadeca-1(10),2,4,6,8,12,14-heptaene] | – | – | 2 | 2.2 | 1.5
5-[16-(4-tert-butylphenyl)-12-ethyl-8,11,13,14,16-pentaazatetracyclo[8.6.0.0^2,^7.0^11,^1^5]hexadeca-1(10),2,4,6,8,12,14-heptaen-4-yl]-N-(2-methoxyethyl)pyridin-2-amine | 72 | 93 | – | – | –
CC(C)(C#N)c1ccc(-n2c3c4cc(-c5cnc(N)cc5C(F)(F)F)ccc4ncc3n3cnnc23)cc1 [2-(4-{4-[6-amino-4-(trifluoromethyl)pyridin-3-yl]-8,11,13,14,16-pentaazatetracyclo-[8.6.0.0^2,^7.0^11,^1^5]hexadec-1(10),2,4,6,8,12,14-heptaen-16-yl}phenyl)-2-methylpropanenitrile] | 87 | 65 | – | – | –
CCc1nnc2n(-c3ccc(C(C)(C)C)cc3)c3c4cc(-c5cccnc5)ccc4ncc3n12 [3-pyridine; CH2CH3; CH3, CH3; CH3, 16-(4-tert-butylphenyl)-12-ethyl-4-(pyridin-3-yl)-8,11,13,14,16-pentaazatetracyclo-[8.6.0.0^2,^7.0^11,^1^5]hexadec-1(10),2,4,6,8,12,14-heptaene] | 40 | 79 | – | – | –
